# Columns and labels:
# [1] = test system: GALAP (Galium); experiment: Preemergence herbicidal evaluation; type: in vivo, Galium aparine; details: rated 4-5 weeks after treatment
# Outline: (§1)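 Greenhouse preemergence test: seed-soil mix sown on ~1 inch soil; aqueous acetone spray at equivalent of ~0.0156–0.500 kg/ha; greenhouse-held and watered; scored 0–9 visually at 4–5 weeks.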
# [2] = test system: CHEAL (Lambsquarters, Common); experiment: Postemergence herbicidal evaluation; type: in vivo, Chenopodium album; details: for CHEAL herbicidal rating: postemergence
# Outline: (§2)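 ~2-wk seedlings; postemergence spray, 40 psi; vehicle 1:1 acetone:water + 0.5% Tween 20; rate ≈0.0156–0.500 kg/ha; greenhouse hold; scored 4–5 wk after treatment, 0–9 scale vs control; repeat tests averaged.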
# [3] = test system: CASOB (Sicklepod); experiment: Postemergence herbicidal evaluation; type: in vivo, Cassia obtusifolia; details: for CASOB herbicidal rating: postemergence
# Outline: as §2
# [4] = test system: SAGPY (Arrowhead (Pygmaea)); experiment: Preemergence weed control under flooded paddy conditions; type: in vivo, Sagittaria pygmaea; details: rated 3-4 weeks after treatment
# Outline: (§3)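 First, seeds or propagules go into the top 0.5 cm of silt loam; next, water is held 1.5 to 3 cm over the soil; then compound (50/50 acetone/water) is pipetted into it at about 0.0313 to 0.500 kg/ha; finally plants are rated visually 0-9 after three to four weeks.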
# [5] = test system: SETVI (Foxtail, Green); experiment: Preemergence herbicidal evaluation; type: in vivo, Setaria viridis; details: rated 4-5 weeks after treatment
# Outline: as §1
# [6] = test system: MOOVA (Monochoria); experiment: Preemergence weed control under flooded paddy conditions; type: in vivo, Monochoria vaginalis; details: rated 3-4 weeks after treatment
# Outline: as §3
# [7] = test system: CYPIR (Rice Flatsedge); experiment: as above; type: in vivo, Cyperus iria; details: rated 3-4 weeks after treatment
# Outline: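 Flooded-pot preemergence screen with silt loam and seeds in the upper 0.5 cm. Dose about 0.0313 to 0.500 kg/ha, delivered into flood water; visual 0-9 score after 3 to 4 weeks.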
# [8] = test system: ORYSAT (Rice, Tebonnet); experiment: Preemergence herbicidal evaluation; type: in vivo, Oryza sativa, (L.) Tebonnet; details: rated 4-5 weeks after treatment
# Outline: as §1
# [9] = test system: CYPSE (Flatsedge); experiment: Postemergence weed control under flooded paddy conditions; type: in vivo, Cyperus serotinus; details: postemergence weeds, 3-4 weeks after treatment
# Outline: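 Weeds 3 to 5 cm tall and rice seedlings at the 1.5 to 2.5 leaf stage were flooded, with water held 1.5 to 3 cm above the soil. Compounds in 50/50 v/v aqueous/acetone went into the flood water at about 0.0313 to 0.500 kg/ha. Visual 0-9 ratings versus control were made 3 to 4 weeks later.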
# [10] = test system: TRZAWR (Wheat, Winter, cv Riband); experiment: Preemergence herbicidal evaluation; type: in vivo, Triticum aestivum; details: rated 4-5 weeks after treatment
# Outline: as §1
# [11] = test system: ORYSAT (Rice, Tebonnet); experiment: Postemergence herbicidal evaluation; type: in vivo, Oryza sativa, (L.) Tebonnet; details: for ORYSAT herbicidal rating: postemergence
# Outline: as §2
# [12] = test system: ECHCG (Barnyardgrass); experiment: Postemergence herbicidal evaluation; type: in vivo, Echinochloa crus-galli; details: for ECHCG herbicidal rating: postemergence
# Outline: as §2
# [13] = test system: ZEAMX (Corn, Field); experiment: Preemergence herbicidal evaluation; type: in vivo, Zea mays; details: rated 4-5 weeks after treatment
# Outline: as §1
# [14] = test system: GLXMAW (Soybean, Williams); experiment: Preemergence herbicidal evaluation; type: in vivo, Glycine max, (L.) Merr. cv Williams; details: rated 4-5 weeks after treatment
# Outline: as §1
smiles,measurement,setting,value
"O=C1CSC(=Nc2cc(N3C(=O)C4=C(CCCC4)C3=O)c(F)cc2Cl)N1c1ccccc1 [Compound 3, N-{4-chloro-2-fluoro-5-[(4-oxo-3-phenyl-2-thiazolidinylidene)amino]phenyl}-1-cyclohexene-1,2-dicarboximide]",GALAP preemergence herbicidal rating,[1]; rate 0.0313 kg/ha,4.0
same,CHEAL herbicidal rating,[2]; rate 0.0313 kg/ha,7.0
same,CHEAL herbicidal rating,[2]; rate 0.0625 kg/ha,6.0
same,CHEAL herbicidal rating,[2]; rate 0.1250 kg/ha,9.0
same,CHEAL herbicidal rating,[2]; rate 0.2500 kg/ha,9.0
same,CHEAL herbicidal rating,[2]; rate 0.5000 kg/ha,9.0
same,CASOB herbicidal rating,[3]; rate 0.0157 kg/ha,0.0
same,CASOB herbicidal rating,[3]; rate 0.0313 kg/ha,0.0
same,CASOB herbicidal rating,[3]; rate 0.0625 kg/ha,0.0
same,CASOB herbicidal rating,[3]; rate 0.1250 kg/ha,0.0
same,CASOB herbicidal rating,[3]; rate 0.2500 kg/ha,6.0
same,CASOB herbicidal rating,[3]; rate 0.5000 kg/ha,4.0
same,Herbicidal rating SAGPY,[4]; 0.0625 kg/ha,0.0
same,Herbicidal rating SAGPY,[4]; 0.1250 kg/ha,0.0
same,Herbicidal rating SAGPY,[4]; 0.2500 kg/ha,0.0
same,Herbicidal rating SAGPY,[4]; 0.5000 kg/ha,0.0
same,SETVI preemergence herbicidal rating,[5]; rate 0.0313 kg/ha,0.0
same,SETVI preemergence herbicidal rating,[5]; rate 0.0625 kg/ha,4.0
same,SETVI preemergence herbicidal rating,[5]; rate 0.1250 kg/ha,4.0
same,SETVI preemergence herbicidal rating,[5]; rate 0.2500 kg/ha,4.0
same,SETVI preemergence herbicidal rating,[5]; rate 0.5000 kg/ha,9.0
same,Herbicidal rating MOOVA,[6]; 0.0625 kg/ha,2.0
same,Herbicidal rating MOOVA,[6]; 0.1250 kg/ha,9.0
same,Herbicidal rating MOOVA,[6]; 0.2500 kg/ha,9.0
same,Herbicidal rating MOOVA,[6]; 0.5000 kg/ha,9.0
same,Herbicidal rating CYPIR,[7]; 0.0625 kg/ha,0.0
same,Herbicidal rating CYPIR,[7]; 0.1250 kg/ha,0.0
same,Herbicidal rating CYPIR,[7]; 0.2500 kg/ha,0.0
same,Herbicidal rating CYPIR,[7]; 0.5000 kg/ha,0.0
same,ORYSAT preemergence herbicidal rating,[8]; rate 0.0313 kg/ha,0.0
same,ORYSAT preemergence herbicidal rating,[8]; rate 0.0625 kg/ha,0.0
same,ORYSAT preemergence herbicidal rating,[8]; rate 0.1250 kg/ha,0.0
same,ORYSAT preemergence herbicidal rating,[8]; rate 0.2500 kg/ha,0.0
same,ORYSAT preemergence herbicidal rating,[8]; rate 0.5000 kg/ha,1.0
same,Herbicidal rating CYPSE,[9]; rate 0.0625 kg/ha,0.0
same,Herbicidal rating CYPSE,[9]; rate 0.1250 kg/ha,0.0
same,Herbicidal rating CYPSE,[9]; rate 0.2500 kg/ha,0.0
same,Herbicidal rating CYPSE,[9]; rate 0.5000 kg/ha,0.0
same,TRZAWR preemergence herbicidal rating,[10]; rate 0.0313 kg/ha,0.0
same,TRZAWR preemergence herbicidal rating,[10]; rate 0.0625 kg/ha,0.0
same,TRZAWR preemergence herbicidal rating,[10]; rate 0.1250 kg/ha,0.0
same,TRZAWR preemergence herbicidal rating,[10]; rate 0.2500 kg/ha,2.0
same,TRZAWR preemergence herbicidal rating,[10]; rate 0.5000 kg/ha,2.0
same,ORYSAT herbicidal rating,[11]; rate 0.0157 kg/ha,2.0
same,ORYSAT herbicidal rating,[11]; rate 0.0313 kg/ha,2.5
same,ORYSAT herbicidal rating,[11]; rate 0.0625 kg/ha,3.0
same,ORYSAT herbicidal rating,[11]; rate 0.1250 kg/ha,3.0
same,ORYSAT herbicidal rating,[11]; rate 0.2500 kg/ha,2.0
same,ORYSAT herbicidal rating,[11]; rate 0.5000 kg/ha,3.5
same,ECHCG herbicidal rating,[12]; rate 0.0157 kg/ha,0.0
same,ECHCG herbicidal rating,[12]; rate 0.0313 kg/ha,0.0
same,ECHCG herbicidal rating,[12]; rate 0.0625 kg/ha,0.0
same,ECHCG herbicidal rating,[12]; rate 0.1250 kg/ha,0.0
same,ECHCG herbicidal rating,[12]; rate 0.2500 kg/ha,0.0
same,ECHCG herbicidal rating,[12]; rate 0.5000 kg/ha,0.0
same,ZEAMX preemergence herbicidal rating,[13]; rate 0.0313 kg/ha,0.0
same,ZEAMX preemergence herbicidal rating,[13]; rate 0.0625 kg/ha,0.0
same,ZEAMX preemergence herbicidal rating,[13]; rate 0.1250 kg/ha,1.0
same,ZEAMX preemergence herbicidal rating,[13]; rate 0.2500 kg/ha,2.0
same,ZEAMX preemergence herbicidal rating,[13]; rate 0.5000 kg/ha,4.0
same,GLXMAW preemergence herbicidal rating,[14]; rate 0.0313 kg/ha,0.0
same,GLXMAW preemergence herbicidal rating,[14]; rate 0.0625 kg/ha,0.0
same,GLXMAW preemergence herbicidal rating,[14]; rate 0.1250 kg/ha,0.0
same,GLXMAW preemergence herbicidal rating,[14]; rate 0.2500 kg/ha,0.0
same,GLXMAW preemergence herbicidal rating,[14]; rate 0.5000 kg/ha,2.0
"CCOC(=O)CN1C(=O)C(CC(=O)O)O/C1=N/c1cc(-n2c(=O)cc(C(F)(F)F)n(C)c2=O)c(F)cc1Cl (centres unmarked) [Compound 41, 2-{{2-Chloro-5-[3,6-dihydro-3-methyl-2,6-dioxo-4-(trifluoromethyl)-1(2H)-pyrimidinyl]-4-fluoro-phenyl}imino}-4-oxo-3,5-oxazolidinediacetic acid, 3-ethyl ester]",Preemergence herbicidal rating GALAP,[1]; rate 0.0156 kg/ha,0.0
same,Preemergence herbicidal rating GALAP,[1]; rate 0.0625 kg/ha,0.0
same,Preemergence herbicidal rating GALAP,[1]; rate 0.1250 kg/ha,0.0
same,Preemergence herbicidal rating GALAP,[1]; rate 0.2500 kg/ha,0.0
same,Postemergence herbicidal rating CHEAL,[2]; Rate 0.0158 kg/ha,3.0
same,Postemergence herbicidal rating CHEAL,[2]; Rate 0.0315 kg/ha,7.0
same,Postemergence herbicidal rating CHEAL,[2]; Rate 0.0630 kg/ha,9.0
same,Postemergence herbicidal rating CASOB,[3]; Rate 0.0158 kg/ha,1.0
same,Postemergence herbicidal rating CASOB,[3]; Rate 0.0315 kg/ha,1.0
same,Postemergence herbicidal rating CASOB,[3]; Rate 0.0630 kg/ha,5.0
same,Herbicidal rating SAGPY,[4]; 0.0313 kg/ha,0.0
same,Herbicidal rating SAGPY,[4]; 0.0625 kg/ha,0.0
same,Herbicidal rating SAGPY,[4]; 0.1250 kg/ha,0.0
same,Herbicidal rating SAGPY,[4]; 0.2500 kg/ha,6.0
same,Preemergence herbicidal rating SETVI,[5]; rate 0.0156 kg/ha,0.0
same,Preemergence herbicidal rating SETVI,[5]; rate 0.0313 kg/ha,0.0
same,Preemergence herbicidal rating SETVI,[5]; rate 0.0625 kg/ha,1.0
same,Preemergence herbicidal rating SETVI,[5]; rate 0.1250 kg/ha,1.0
same,Preemergence herbicidal rating SETVI,[5]; rate 0.2500 kg/ha,9.0
same,Herbicidal rating MOOVA,[6]; 0.0313 kg/ha,6.0
same,Herbicidal rating MOOVA,[6]; 0.0625 kg/ha,9.0
same,Herbicidal rating MOOVA,[6]; 0.1250 kg/ha,9.0
same,Herbicidal rating MOOVA,[6]; 0.2500 kg/ha,9.0
same,Herbicidal rating CYPIR,[7]; 0.0313 kg/ha,0.0
same,Herbicidal rating CYPIR,[7]; 0.0625 kg/ha,0.0
same,Herbicidal rating CYPIR,[7]; 0.1250 kg/ha,0.0
same,Herbicidal rating CYPIR,[7]; 0.2500 kg/ha,4.0
same,Preemergence herbicidal rating ORYSAT,[8]; rate 0.0156 kg/ha,0.0
same,Preemergence herbicidal rating ORYSAT,[8]; rate 0.0313 kg/ha,0.0
same,Preemergence herbicidal rating ORYSAT,[8]; rate 0.0625 kg/ha,0.0
same,Preemergence herbicidal rating ORYSAT,[8]; rate 0.1250 kg/ha,0.0
same,Preemergence herbicidal rating ORYSAT,[8]; rate 0.2500 kg/ha,0.0
same,Herbicidal rating CYPSE,[9]; rate 0.0313 kg/ha,0.0
same,Herbicidal rating CYPSE,[9]; rate 0.0625 kg/ha,0.0
same,Herbicidal rating CYPSE,[9]; rate 0.1250 kg/ha,2.0
same,Herbicidal rating CYPSE,[9]; rate 0.2500 kg/ha,7.0
same,Preemergence herbicidal rating TRZAWR,[10]; rate 0.0156 kg/ha,0.0
same,Preemergence herbicidal rating TRZAWR,[10]; rate 0.0313 kg/ha,0.0
same,Preemergence herbicidal rating TRZAWR,[10]; rate 0.0625 kg/ha,0.0
same,Preemergence herbicidal rating TRZAWR,[10]; rate 0.1250 kg/ha,0.0
same,Preemergence herbicidal rating TRZAWR,[10]; rate 0.2500 kg/ha,0.0
same,Postemergence herbicidal rating ORYSAT,[11]; Rate 0.0158 kg/ha,2.5
same,Postemergence herbicidal rating ORYSAT,[11]; Rate 0.0315 kg/ha,3.5
same,Postemergence herbicidal rating ORYSAT,[11]; Rate 0.0630 kg/ha,3.5
same,Postemergence herbicidal rating ECHCG,[12]; Rate 0.0158 kg/ha,2.0
same,Postemergence herbicidal rating ECHCG,[12]; Rate 0.0315 kg/ha,7.0
same,Postemergence herbicidal rating ECHCG,[12]; Rate 0.0630 kg/ha,9.0
same,Preemergence herbicidal rating ZEAMX,[13]; rate 0.0156 kg/ha,0.0
same,Preemergence herbicidal rating ZEAMX,[13]; rate 0.0313 kg/ha,0.0
same,Preemergence herbicidal rating ZEAMX,[13]; rate 0.0625 kg/ha,1.0
same,Preemergence herbicidal rating ZEAMX,[13]; rate 0.1250 kg/ha,0.0
same,Preemergence herbicidal rating ZEAMX,[13]; rate 0.2500 kg/ha,2.0
same,Preemergence herbicidal rating GLXMAW,[14]; rate 0.0156 kg/ha,0.0
same,Preemergence herbicidal rating GLXMAW,[14]; rate 0.0313 kg/ha,1.0
same,Preemergence herbicidal rating GLXMAW,[14]; rate 0.0625 kg/ha,3.0
same,Preemergence herbicidal rating GLXMAW,[14]; rate 0.1250 kg/ha,2.0
same,Preemergence herbicidal rating GLXMAW,[14]; rate 0.2500 kg/ha,6.0
